Reference: PubChem BioAssay (NCI)
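Values below derive from 48-hour exposures of cells grown in 96-well plates, with endpoints linearly interpolated between the two concentrations bracketing the appropriate inhibition level. GI50 = concentration required for 50% inhibition of growth. The concentration for full growth arrest is given as TGI.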

Assays:
Test in all cases: NCI tumour cell line growth inhibition, 48 h
HS 578T breast = tested on: HS 578T breast
NCI-H226 lung = tested on: NCI-H226 lung
SK-MEL-5 melanoma = tested on: SK-MEL-5 melanoma
IGROV1 ovarian = tested on: IGROV1 ovarian
A549 NSCLC = tested on: A549 NSCLC
MDA-MB-468 breast = tested on: MDA-MB-468 breast
HT29 colon = tested on: HT29 colon
SK-OV-3 ovarian = tested on: SK-OV-3 ovarian
M14 melanoma = tested on: M14 melanoma
BT-549 breast = tested on: BT-549 breast
HCT-116 colon = tested on: HCT-116 colon
SR leukemia = tested on: SR leukemia
UACC-62 melanoma = tested on: UACC-62 melanoma
SNB-75 CNS = tested on: SNB-75 CNS
SF-295 CNS = tested on: SF-295 CNS
RPMI-8226 leukemia = tested on: RPMI-8226 leukemia
TK-10 renal = tested on: TK-10 renal
CAKI-1 renal = tested on: CAKI-1 renal
RXF 393 renal = tested on: RXF 393 renal
MALME-3M melanoma = tested on: MALME-3M melanoma
SF-268 CNS = tested on: SF-268 CNS
CCRF-CEM leukemia = tested on: CCRF-CEM leukemia
T-47D breast = tested on: T-47D breast
SN12C renal = tested on: SN12C renal
HOP-92 NSCLC = tested on: HOP-92 NSCLC
HOP-62 NSCLC = tested on: HOP-62 NSCLC
SK-MEL-2 melanoma = tested on: SK-MEL-2 melanoma
UACC-257 melanoma = tested on: UACC-257 melanoma
A498 renal = tested on: A498 renal
PC-3 prostate = tested on: PC-3 prostate
HCC-2998 colon = tested on: HCC-2998 colon
MOLT-4 leukemia = tested on: MOLT-4 leukemia
LOX IMVI melanoma = tested on: LOX IMVI melanoma
MDA-MB-231 breast = tested on: MDA-MB-231 breast
NCI-H23 lung = tested on: NCI-H23 lung
OVCAR-4 ovarian = tested on: OVCAR-4 ovarian
K-562 leukemia = tested on: K-562 leukemia
DU-145 prostate = tested on: DU-145 prostate
EKVX NSCLC = tested on: EKVX NSCLC
MCF7 breast = tested on: MCF7 breast
HL-60(TB) leukemia = tested on: HL-60(TB) leukemia

Work on `O=C(/C=C/c1ccc(F)cc1)c1nc2ccccc2n1Cc1ccc(F)cc1` yielded a GI50 (HS 578T breast) of 2.58 µM, a TGI (HS 578T breast) of 20.4 µM and a GI50 (NCI-H226 lung) of 5.79 µM. For the same molecule, the TGI (NCI-H226 lung) was > 100 µM, the GI50 (SK-MEL-5 melanoma) was 2.63 µM and the TGI (SK-MEL-5 melanoma) was 9.85 µM. The GI50 (IGROV1 ovarian) was 3.03 µM, the TGI (IGROV1 ovarian) was > 100 µM and the GI50 (A549 NSCLC) was 3.92 µM. The TGI (A549 NSCLC) was > 100 µM, the GI50 (MDA-MB-468 breast) was 2.19 µM and the TGI (MDA-MB-468 breast) was 6.05 µM. For the same molecule, the GI50 (HT29 colon) was 2.33 µM, the TGI (HT29 colon) was 4.93 µM and the GI50 (SK-OV-3 ovarian) was 15.5 µM. The TGI (SK-OV-3 ovarian) was > 100 µM, the GI50 (M14 melanoma) was 2.82 µM and the TGI (M14 melanoma) was > 100 µM. It also gave a GI50 (BT-549 breast) of 2.6 µM, a TGI (BT-549 breast) of 8.56 µM and a GI50 (HCT-116 colon) of 1.86 µM. The TGI (HCT-116 colon) was 4.46 µM, the GI50 (SR leukemia) was 1.86 µM and the TGI (SR leukemia) was 6.01 µM. The GI50 (UACC-62 melanoma) was 2.02 µM, the TGI (UACC-62 melanoma) was 7.09 µM and the GI50 (SNB-75 CNS) was 1.11 µM. The TGI (SNB-75 CNS) was 6.44 µM, the GI50 (SF-295 CNS) was 2.59 µM and the TGI (SF-295 CNS) was 8.27 µM. It also gave a GI50 (RPMI-8226 leukemia) of 1.86 µM, a TGI (RPMI-8226 leukemia) of 5.03 µM and a GI50 (TK-10 renal) of 2.97 µM. For the same molecule, the TGI (TK-10 renal) was > 100 µM, the GI50 (CAKI-1 renal) was 2.26 µM and the TGI (CAKI-1 renal) was > 100 µM. It also gave a GI50 (RXF 393 renal) of 1.59 µM, a TGI (RXF 393 renal) of 3.4 µM and a GI50 (MALME-3M melanoma) of 2.61 µM. For the same molecule, the TGI (MALME-3M melanoma) was 9.59 µM, the GI50 (SF-268 CNS) was 3.33 µM and the TGI (SF-268 CNS) was > 100 µM. The GI50 (CCRF-CEM leukemia) was 2.26 µM, the TGI (CCRF-CEM leukemia) was 7.46 µM and the GI50 (T-47D breast) was 3.13 µM. The TGI (T-47D breast) was > 100 µM, the GI50 (SN12C renal) was 3.64 µM and the TGI (SN12C renal) was > 100 µM. It also gave a GI50 (HOP-92 NSCLC) of 2.56 µM, a TGI (HOP-92 NSCLC) of 57.9 µM and a GI50 (HOP-62 NSCLC) of 3.2 µM. For the same molecule, the TGI (HOP-62 NSCLC) was 17.6 µM, the GI50 (SK-MEL-2 melanoma) was 2.35 µM and the TGI (SK-MEL-2 melanoma) was 6.17 µM. The GI50 (UACC-257 melanoma) was 3.1 µM, the TGI (UACC-257 melanoma) was > 100 µM and the GI50 (A498 renal) was > 100 µM. For the same molecule, the TGI (A498 renal) was > 100 µM, the GI50 (PC-3 prostate) was 3.63 µM and the TGI (PC-3 prostate) was > 100 µM. The GI50 (HCC-2998 colon) was 2.1 µM, the TGI (HCC-2998 colon) was 4.71 µM and the GI50 (MOLT-4 leukemia) was 2.06 µM. The TGI (MOLT-4 leukemia) was 6.04 µM, the GI50 (LOX IMVI melanoma) was 1.56 µM and the TGI (LOX IMVI melanoma) was 3.08 µM. The GI50 (MDA-MB-231 breast) was 2.25 µM, the TGI (MDA-MB-231 breast) was 5.59 µM and the GI50 (NCI-H23 lung) was 2.88 µM. For the same molecule, the TGI (NCI-H23 lung) was 14.1 µM, the GI50 (OVCAR-4 ovarian) was 4.3 µM and the TGI (OVCAR-4 ovarian) was > 100 µM. The GI50 (K-562 leukemia) was 2.68 µM, the TGI (K-562 leukemia) was > 100 µM and the GI50 (DU-145 prostate) was 3.48 µM. The TGI (DU-145 prostate) was > 100 µM, the GI50 (EKVX NSCLC) was 3.48 µM and the TGI (EKVX NSCLC) was > 100 µM. The GI50 (MCF7 breast) was 1.62 µM, the TGI (MCF7 breast) was > 100 µM and the GI50 (HL-60(TB) leukemia) was 1.73 µM. For the same molecule, the TGI (HL-60(TB) leukemia) was 4.81 µM.
